Measured values published in PubChem BioAssay AID328 (DTP/NCI, 2004).
“And” between values parts separate entries of the source, which are not always exact repeats. Identical values can stand only once. Toxic doses and inconclusive results are not listed.

Tested on: BDF1 mice, P388 leukemia ip, median survival T/C
Assay: NCI In Vivo Anticancer Drug Screen. Data for tumor model P388 Leukemia (intraperitoneal) in B6D2F1 (BDF1) mice
Details: endpoint: median survival time, higher = longer survival
Procedure, shortened: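 Each value expresses how treatment altered survival: treated-mouse outcome over vehicle-mouse outcome, both groups bearing the transplanted tumour.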

[1] = dose: 100.0 mg/kg/injection, schedule: Q04DX003 (ip), vehicle: saline with Tween-80
[2] = dose: 200.0 mg/kg/injection, schedule: Q04DX003 (ip), vehicle: saline with Tween-80
[3] = dose: 100.0 mg/kg/injection, schedule: Q01DX009 (ip), vehicle: Klucel (hydroxypropylcellulose) (HPC)
[4] = dose: 100.0 mg/kg/injection, schedule: Q04DX003 (ip), vehicle: Klucel (hydroxypropylcellulose) (HPC)
[5] = dose: 200.0 mg/kg/injection, schedule: Q01DX009 (ip), vehicle: Klucel (hydroxypropylcellulose) (HPC)
[6] = dose: 200.0 mg/kg/injection, schedule: Q04DX003 (ip), vehicle: Klucel (hydroxypropylcellulose) (HPC)
[7] = dose: 400.0 mg/kg/injection, schedule: Q04DX003 (ip), vehicle: Klucel (hydroxypropylcellulose) (HPC)
[8] = dose: 2.5 mg/kg/injection, schedule: Q01DX009 (ip), vehicle: saline
[9] = dose: 20.0 mg/kg/injection, schedule: Q01DX009 (ip), vehicle: saline
[10] = dose: 12.5 mg/kg/injection, schedule: Q01DX009 (ip), vehicle: Klucel (hydroxypropylcellulose) (HPC)
[11] = dose: 25.0 mg/kg/injection, schedule: Q01DX009 (ip), vehicle: Klucel (hydroxypropylcellulose) (HPC)
[12] = dose: 50.0 mg/kg/injection, schedule: Q01DX009 (ip), vehicle: Klucel (hydroxypropylcellulose) (HPC)
[13] = dose: 50.0 mg/kg/injection, schedule: Q04DX003 (ip), vehicle: Klucel (hydroxypropylcellulose) (HPC)
[14] = dose: 100.0 mg/kg/injection, schedule: Q01DX009 (ip), vehicle: saline with Tween-80
[15] = dose: 200.0 mg/kg/injection, schedule: Q01DX009 (ip), vehicle: saline with Tween-80
[16] = dose: 400.0 mg/kg/injection, schedule: Q01DX009 (ip), vehicle: saline with Tween-80

`C=C1C(=O)O[C@@H]2CC(CO)=C([C@@H](C)CCCO)[C@@H](OC(=O)/C(C)=C\C)[C@H]12` was tested, and the T/C (dose: 2.0 mg/kg/injection, schedule: Q01DX009 (ip), vehicle: saline + alcohol) was 123 % of control, the T/C (dose: 4.0 mg/kg/injection, schedule: Q01DX009 (ip), vehicle: saline + alcohol) was 104 % of control and the T/C (dose: 8.0 mg/kg/injection, schedule: Q01DX009 (ip), vehicle: saline + alcohol) was 123 % of control. For the same compound, the T/C (dose: 16.0 mg/kg/injection, schedule: Q01DX009 (ip), vehicle: saline + alcohol) was 114 % of control.
With `C=CCNC(=S)Nc1ccc(N(C)C)cc1` the T/C (dose: 50.0 mg/kg/injection, schedule: Q04DX003 (ip), vehicle: saline with Tween-80) was 100 % of control, the T/C [1] was 95 % of control and the T/C [2] was 109 % of control.
For `NCCCCC1NC(=O)C(CCCCN)NC1=O` (configuration not stated), the T/C (dose: 50.0 mg/kg/injection, schedule: Q01DX005 (ip), vehicle: saline) was 105 % of control, the T/C (dose: 100.0 mg/kg/injection, schedule: Q01DX005 (ip), vehicle: saline) was 105 % of control and the T/C (dose: 200.0 mg/kg/injection, schedule: Q01DX005 (ip), vehicle: saline) was 95 % of control.
In the case of `Cc1ccc(S(=O)(=O)OCC(CO)(COS(=O)(=O)c2ccc(C)cc2)[N+](=O)[O-])cc1`, the T/C [3] is reported as 100 % of control, the T/C [4] is reported as 113 % of control and the T/C [5] is reported as 95 % of control. For the same compound, the T/C [6] was 121 % of control and the T/C [7] was 121 % of control.
In the case of `c1ccc([C@H]2CN3CCSC3=N2)cc1`, the T/C (dose: 0.15 mg/kg/injection, schedule: Q01DX009 (ip), vehicle: saline) is reported as 100 % of control, the T/C (dose: 0.31 mg/kg/injection, schedule: Q01DX009 (ip), vehicle: saline) is reported as 100 % of control and the T/C (dose: 0.63 mg/kg/injection, schedule: Q01DX009 (ip), vehicle: saline) is reported as 100 % of control and 122 % of control. The T/C (dose: 1.25 mg/kg/injection, schedule: Q01DX009 (ip), vehicle: saline) was 97 % of control and 104 % of control, the T/C [8] was 99 % of control and 104 % of control and the T/C (dose: 5.0 mg/kg/injection, schedule: Q01DX009 (ip), vehicle: saline) was 100 % of control. For the same compound, the T/C (dose: 10.0 mg/kg/injection, schedule: Q01DX009 (ip), vehicle: saline) was 94 % of control and 100 % of control and the T/C [9] was 94 % of control and 100 % of control.
With `C[C@]12CC[C@@H]3c4ccc(O)cc4CC[C@H]3[C@@H]1C[C@@H](O)[C@@H]2O` the T/C [10] was 90 % of control, the T/C [11] was 100 % of control and the T/C [12] was 109 % of control. For the same compound, the T/C [4] was 104 % of control, the T/C [6] was 104 % of control and the T/C [7] was 100 % of control.
For `O=C(/C(=N/Nc1ccccc1)c1ccccc1)c1ccccc1`, the T/C [4] was 104 % of control, the T/C [6] was 100 % of control and the T/C [7] was 113 % of control.
In the case of `O=C(O)c1c(Cl)c(Cl)c(Cl)c(C(=O)O)c1Cl`, the T/C [12] is reported as 104 % of control, the T/C [13] is reported as 109 % of control and the T/C [3] is reported as 100 % of control. For the same compound, the T/C [4] was 95 % of control and the T/C [6] was 100 % of control.
`O=C(/C=C/c1ccc(Cl)cc1)c1ccc(Cl)cc1` was tested, and the T/C [14] was 100 % of control, the T/C [15] was 90 % of control and the T/C [16] was 90 % of control.
In the case of `C[N+](C)(C)C.N=C=O.N=C=O.N=C=O.N=C=O.[Co+2]`, the T/C [8] is reported as 88 % of control, the T/C (dose: 5.0 mg/kg/injection, schedule: Q01DX001 (ip), vehicle: other) is reported as 86 % of control and the T/C (dose: 5.0 mg/kg/injection, schedule: Q01DX009 (ip), vehicle: saline with Tween-80) is reported as 100 % of control. The T/C (dose: 5.0 mg/kg/injection, schedule: Q04DX003 (ip), vehicle: saline with Tween-80) was 95 % of control, the T/C (dose: 10.0 mg/kg/injection, schedule: Q01DX001 (ip), vehicle: other) was 95 % of control and the T/C (dose: 10.0 mg/kg/injection, schedule: Q01DX009 (ip), vehicle: saline with Tween-80) was 115 % of control and 116 % of control. For the same compound, the T/C (dose: 10.0 mg/kg/injection, schedule: Q04DX003 (ip), vehicle: saline with Tween-80) was 109 % of control, the T/C (dose: 20.0 mg/kg/injection, schedule: Q01DX001 (ip), vehicle: other) was 100 % of control and the T/C (dose: 20.0 mg/kg/injection, schedule: Q01DX009 (ip), vehicle: saline with Tween-80) was 95 % of control and 115 % of control. For the same compound, the T/C [9] was 95 % of control, the T/C (dose: 20.0 mg/kg/injection, schedule: Q04DX003 (ip), vehicle: saline with Tween-80) was 95 % of control and the T/C (dose: 40.0 mg/kg/injection, schedule: Q01DX009 (ip), vehicle: saline) was 117 % of control.
In the case of `BrC1C2CC3C(C2)C13` (configuration not stated), the T/C [3] is reported as 100 % of control, the T/C [5] is reported as 86 % of control and the T/C (dose: 400.0 mg/kg/injection, schedule: Q01DX009 (ip), vehicle: Klucel (hydroxypropylcellulose) (HPC)) is reported as 109 % of control.
For `CCN(CC)c1nc(NC2CCCCC2)c2nc(N(CC)CC)nc(NC3CCCCC3)c2n1`, the T/C (dose: 3.13 mg/kg/injection, schedule: Q01DX009 (ip), vehicle: Klucel (hydroxypropylcellulose) (HPC)) was 101 % of control, the T/C (dose: 6.25 mg/kg/injection, schedule: Q01DX009 (ip), vehicle: Klucel (hydroxypropylcellulose) (HPC)) was 110 % of control and the T/C [10] was 99 % of control. For the same compound, the T/C [11] was 101 % of control.
With `COc1cccc2c1C(=O)c1c(O)c3c(c(O)c1C2=O)C[C@@](O)(/C(C)=N/NC(=O)c1ccc(Cl)cc1)C[C@@H]3OC1CC(N)C(O)C(C)O1` (some centres not stated) the T/C (dose: 0.5 mg/kg/injection, schedule: Q01DX009 (ip), vehicle: water) was 110 % of control, the T/C (dose: 1.0 mg/kg/injection, schedule: Q01DX009 (ip), vehicle: water) was 107 % of control and 214 % of control and the T/C (dose: 2.0 mg/kg/injection, schedule: Q01DX009 (ip), vehicle: water) was 303 % of control. The T/C (dose: 4.0 mg/kg/injection, schedule: Q01DX009 (ip), vehicle: water) was 238 % of control and 115 % of control and the T/C (dose: 8.0 mg/kg/injection, schedule: Q01DX009 (ip), vehicle: water) was 164 % of control.
`CCOC(=O)CC(C)(N)NC(N)=O` (configuration not stated) was tested, and the T/C (dose: 100.0 mg/kg/injection, schedule: Q01DX001 (ip), vehicle: saline with Tween-80) was 110 % of control, the T/C [14] was 115 % of control and the T/C (dose: 100.0 mg/kg/injection, schedule: Q04DX003 (ip), vehicle: alcohol) was 110 % of control. The T/C (dose: 200.0 mg/kg/injection, schedule: Q01DX001 (ip), vehicle: saline with Tween-80) was 95 % of control, the T/C [15] was 105 % of control and the T/C (dose: 200.0 mg/kg/injection, schedule: Q04DX003 (ip), vehicle: alcohol) was 105 % of control. For the same compound, the T/C (dose: 400.0 mg/kg/injection, schedule: Q01DX001 (ip), vehicle: saline with Tween-80) was 110 % of control, the T/C [16] was 105 % of control and the T/C (dose: 400.0 mg/kg/injection, schedule: Q04DX003 (ip), vehicle: alcohol) was 110 % of control.
With `CCCCC(CC)COP(OCC(CC)CCCC)OCC(CC)CCCC` (configuration not stated) the T/C [1] was 109 % of control, the T/C [2] was 100 % of control and the T/C (dose: 400.0 mg/kg/injection, schedule: Q04DX003 (ip), vehicle: saline with Tween-80) was 118 % of control.
With `Oc1ccc2ccccc2c1C1=NNc2n[nH]c(=S)n2N1` the T/C (dose: 12.5 mg/kg/injection, schedule: Q04DX003 (ip), vehicle: Klucel (hydroxypropylcellulose) (HPC)) was 104 % of control, the T/C (dose: 25.0 mg/kg/injection, schedule: Q04DX003 (ip), vehicle: Klucel (hydroxypropylcellulose) (HPC)) was 108 % of control and the T/C [13] was 104 % of control.
In the case of `Cc1cc(-c2ccc(NC(=O)Nc3cccc(F)c3)c(C)c2)ccc1NC(=O)Nc1cccc(F)c1`, the T/C (dose: 50.0 mg/kg/injection, schedule: Q01DX005 (ip), vehicle: saline with Tween-80) is reported as 91 % of control, the T/C (dose: 100.0 mg/kg/injection, schedule: Q01DX005 (ip), vehicle: saline with Tween-80) is reported as 86 % of control and the T/C (dose: 200.0 mg/kg/injection, schedule: Q01DX005 (ip), vehicle: saline with Tween-80) is reported as 86 % of control.
